# Laboratory results reported in patent US11566007B2, “Ras inhibitors” (Revolution Medicines, Inc., priority 2019, dated 2023).
# How the values were obtained:
# NCI-H358 (K-Ras G12C) = test: CellTiter-Glo cell viability assay, NCI-H358; assay type: cell-based, human; settings: Homo sapiens, NCI-H358, 120 h, NCI-H358, 5-day treatment; class symbols; read-out: Additional H358 Cell Viability assay data (K-Ras G12C, IC50)
# In short: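 Compounds were dispensed directly onto K-Ras mutant cells and incubated until day 5, then plates were equilibrated to room temperature for about 30 minutes before CellTiter-Glo luminescence. Signals were normalized as (sample/average DMSO)*100 and fitted by four-parameter logistic fit.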
# K-Ras G12C = K-Ras G12C (Homo sapiens (Human), UniProt P01116+P62937, G12C); test: Ras-Raf (BRAF RBD) disruption / FRET / MOA assay, KRAS G12C; assay type: biochemical; settings: KRAS G12C; Ras-Raf disruption/FRET/MOA assay; read-out: IC50* KRAS G12C FRET data
# K-Ras G12C, sequence (P01116-2 other isoform, or with tags, fused parts or gaps G12C): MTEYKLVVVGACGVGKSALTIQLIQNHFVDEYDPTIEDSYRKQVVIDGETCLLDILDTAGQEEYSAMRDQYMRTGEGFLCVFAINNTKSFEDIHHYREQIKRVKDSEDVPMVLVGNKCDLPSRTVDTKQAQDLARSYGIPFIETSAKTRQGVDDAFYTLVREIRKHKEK
# K-Ras G12C, sequence (P62937 whole entry): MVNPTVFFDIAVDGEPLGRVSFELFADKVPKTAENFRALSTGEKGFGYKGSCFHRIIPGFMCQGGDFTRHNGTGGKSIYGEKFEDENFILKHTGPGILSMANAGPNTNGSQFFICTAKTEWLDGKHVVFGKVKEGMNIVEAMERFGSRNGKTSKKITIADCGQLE
# In short: (§1)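 Compounds, top final concentration 30 μM in 10-point 3-fold series, incubated 3 hours at 25° C with nucleotide-loaded Ras, cyclophilin A and BRAF RBD.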
# K-Ras G13C = K-Ras G13C (Homo sapiens (Human), UniProt P01116+P62937, G13C); test: Ras-Raf (BRAF RBD) disruption / FRET / MOA assay, KRAS G13C; assay type: biochemical; settings: KRAS G13C; Ras-Raf disruption/FRET/MOA assay; read-out: IC50* KRAS G13C FRET data
# K-Ras G13C, sequence (P01116-2 other isoform, or with tags, fused parts or gaps G13C): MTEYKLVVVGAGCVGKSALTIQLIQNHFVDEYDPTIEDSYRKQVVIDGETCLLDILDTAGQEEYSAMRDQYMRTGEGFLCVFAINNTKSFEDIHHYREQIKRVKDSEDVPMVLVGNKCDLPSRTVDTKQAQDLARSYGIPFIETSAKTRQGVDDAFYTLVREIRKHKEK
# K-Ras G13C, sequence (P62937 whole entry): as the sequence (P62937 whole entry) above
# In short: as §1
# KRAS G12S = KRAS G12S (Homo sapiens (Human), UniProt P01116+P62937, G12S); test: Ras-Raf (BRAF RBD) disruption / FRET / MOA assay, KRAS G12S; assay type: biochemical; settings: Ras-Raf disruption/FRET/MOA assay; class symbols; read-out: KRAS G12S FRET data IC50
# KRAS G12S, sequence (P01116-2 other isoform, or with tags, fused parts or gaps G12S): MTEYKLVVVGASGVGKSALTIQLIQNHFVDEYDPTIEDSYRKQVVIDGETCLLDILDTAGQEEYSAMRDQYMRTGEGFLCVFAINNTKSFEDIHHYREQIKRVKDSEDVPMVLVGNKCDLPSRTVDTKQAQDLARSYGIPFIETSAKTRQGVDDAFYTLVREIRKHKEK
# KRAS G12S, sequence (P62937 whole entry): as the sequence (P62937 whole entry) above
# In short: as §1
# KRAS G12D = KRAS G12D (Homo sapiens (Human), UniProt P01116+P62937, G12D); test: Ras-Raf (BRAF RBD) disruption / FRET / MOA assay, KRAS G12D; assay type: biochemical; settings: Ras-Raf disruption/FRET/MOA assay; class symbols; read-out: KRAS G12D FRET data IC50
# KRAS G12D, sequence (P01116-2 other isoform, or with tags, fused parts or gaps G12D): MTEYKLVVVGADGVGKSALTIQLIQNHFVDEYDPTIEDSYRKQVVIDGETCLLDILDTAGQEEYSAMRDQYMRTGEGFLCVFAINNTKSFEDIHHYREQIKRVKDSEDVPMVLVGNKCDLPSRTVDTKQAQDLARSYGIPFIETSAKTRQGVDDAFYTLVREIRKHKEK
# KRAS G12D, sequence (P62937 whole entry): as the sequence (P62937 whole entry) above
# In short: as §1
# KRAS WT = KRAS WT (Homo sapiens (Human), UniProt P01116+P62937); test: Ras-Raf (BRAF RBD) disruption / FRET / MOA assay, KRAS WT; assay type: biochemical; settings: read-out: IC50* KRAS WT FRET data
# KRAS WT, sequence (P01116-2 other isoform, or with tags, fused parts or gaps): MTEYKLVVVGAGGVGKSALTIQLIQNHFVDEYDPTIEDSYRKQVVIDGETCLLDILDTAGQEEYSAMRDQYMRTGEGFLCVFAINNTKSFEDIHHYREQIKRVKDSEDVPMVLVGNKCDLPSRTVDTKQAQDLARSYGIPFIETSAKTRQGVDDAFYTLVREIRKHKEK
# KRAS WT, sequence (P62937 whole entry): as the sequence (P62937 whole entry) above
# In short: as §1
# KRAS G13D = KRAS G13D (Homo sapiens (Human), UniProt P01116+P62937, G13D); test: Ras-Raf (BRAF RBD) disruption / FRET / MOA assay, KRAS G13D; assay type: biochemical; settings: read-out: IC50* KRAS G13D FRET data
# KRAS G13D, sequence (P01116-2 other isoform, or with tags, fused parts or gaps G13D): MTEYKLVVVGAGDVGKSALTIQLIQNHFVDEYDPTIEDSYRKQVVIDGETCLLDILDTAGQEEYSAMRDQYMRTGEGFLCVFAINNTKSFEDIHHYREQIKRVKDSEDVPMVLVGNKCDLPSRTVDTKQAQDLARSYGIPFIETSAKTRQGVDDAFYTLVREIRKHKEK
# KRAS G13D, sequence (P62937 whole entry): as the sequence (P62937 whole entry) above
# In short: as §1
# KRAS Q61H = KRAS Q61H (Homo sapiens (Human), UniProt P01116+P62937, Q61H); test: Ras-Raf (BRAF RBD) disruption / FRET / MOA assay, KRAS Q61H; assay type: biochemical; settings: Ras-Raf disruption/FRET/MOA assay; class symbols; read-out: KRAS Q61H FRET data IC50
# KRAS Q61H, sequence (P01116-2 other isoform, or with tags, fused parts or gaps Q61H): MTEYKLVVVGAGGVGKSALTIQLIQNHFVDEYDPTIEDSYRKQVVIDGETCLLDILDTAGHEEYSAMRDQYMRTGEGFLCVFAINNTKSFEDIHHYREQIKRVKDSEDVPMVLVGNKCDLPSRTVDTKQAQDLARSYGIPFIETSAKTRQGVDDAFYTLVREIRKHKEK
# KRAS Q61H, sequence (P62937 whole entry): as the sequence (P62937 whole entry) above
# In short: (§2)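 TR-FRET disruption of nucleotide-loaded Ras binding to BRAF RBD via compound-driven ternary complex with cyclophilin A. Compound as 10-point 3-fold series from 30 μM final, 3 h at 25° C, then anti-His Eu-W1024 (10 nM) and anti-GST allophycocyanin (50 nM) for 1.5 h. IC50 from decreased FRET ratio versus DMSO.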
# NRAS G12C = NRAS G12C (Homo sapiens (Human), UniProt P01111+P62937, G12C); test: Ras-Raf (BRAF RBD) disruption / FRET / MOA assay, NRAS G12C; assay type: biochemical; settings: read-out: IC50* NRAS G12C FRET data
# NRAS G12C, sequence (P01111 whole entry G12C): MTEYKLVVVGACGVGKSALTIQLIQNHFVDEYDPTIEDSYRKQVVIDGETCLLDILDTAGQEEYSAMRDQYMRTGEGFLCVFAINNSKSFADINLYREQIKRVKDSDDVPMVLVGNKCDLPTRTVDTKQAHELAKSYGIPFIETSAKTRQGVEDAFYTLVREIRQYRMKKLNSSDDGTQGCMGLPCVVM
# NRAS G12C, sequence (P62937 whole entry): as the sequence (P62937 whole entry) above
# In short: as §1
# NRAS Q61R = NRAS Q61R (Homo sapiens (Human), UniProt P01111+P62937, Q61R); test: Ras-Raf (BRAF RBD) disruption / FRET / MOA assay, NRAS Q61R; assay type: biochemical; settings: NRAS Q61R; Ras-Raf disruption/FRET/MOA assay; read-out: IC50* NRAS Q61R FRET data
# NRAS Q61R, sequence (P01111 whole entry Q61R): as the sequence (P01111 whole entry G12C) above, with C12G, Q61R counted along it
# NRAS Q61R, sequence (P62937 whole entry): as the sequence (P62937 whole entry) above
# In short: as §2
# NRAS Q61K = NRAS Q61K (Homo sapiens (Human), UniProt P01111+P62937, Q61K); test: Ras-Raf (BRAF RBD) disruption / FRET / MOA assay, NRAS Q61K; assay type: biochemical; settings: NRAS Q61K; Ras-Raf disruption/FRET/MOA assay; read-out: IC50* NRAS Q61K FRET data
# NRAS Q61K, sequence (P01111 whole entry Q61K): as the sequence (P01111 whole entry G12C) above, with C12G, Q61K counted along it
# NRAS Q61K, sequence (P62937 whole entry): as the sequence (P62937 whole entry) above
# In short: as §2
# NRAS WT = NRAS WT (Homo sapiens (Human), UniProt P01111+P62937); test: Ras-Raf (BRAF RBD) disruption / FRET / MOA assay, NRAS WT; assay type: biochemical; settings: read-out: IC50* NRAS WT FRET data
# NRAS WT, sequence (P01111 whole entry): as the sequence (P01111 whole entry G12C) above, with C12G counted along it
# NRAS WT, sequence (P62937 whole entry): as the sequence (P62937 whole entry) above
# In short: as §2
Structure (SMILES),IC50 (NCI-H358 (K-Ras G12C)),IC50 (K-Ras G12C),IC50 (K-Ras G13C),IC50 (KRAS G12S),IC50 (KRAS G12D),IC50 (KRAS WT),IC50 (KRAS G13D),IC50 (KRAS Q61H),IC50 (NRAS G12C),IC50 (NRAS Q61R),IC50 (NRAS Q61K),IC50 (NRAS WT)
"C=CC(=O)N1CC2(CCN(C(=O)N(C)[C@H](C(=O)N[C@H]3Cc4cccc(c4)-c4ccc5c(c4)c(c(-c4cccnc4[C@H](C)OC)n5CC)CC(C)(C)COC(=O)[C@@H]4CCCN(N4)C3=O)C(C)C)CC2)C1 (atropisomer, axis not shown) [Example A680]",10 to 100 nM,100 to 1000 nM,10 to 100 nM,100 to 1000 nM,1000 to 10000 nM,100 to 1000 nM,1000 to 10000 nM,100 to 1000 nM,100 to 1000 nM,100 to 1000 nM,100 to 1000 nM,100 to 1000 nM
"C=CC(=O)N1CC[C@@H]2[C@H](C1)CN2C(=O)N(C)[C@H](C(=O)N[C@H]1Cc2nc(cs2)-c2ccc3c(c2)c(c(-c2cccnc2[C@H](C)OC)n3CC)CC(C)(C)COC(=O)[C@@H]2CCCN(N2)C1=O)C(C)C (atropisomer, axis not shown) [Example A688]",100 to 1000 nM,100 to 1000 nM,100 to 1000 nM,1000 to 10000 nM,1000 to 10000 nM,100 to 1000 nM,1000 to 10000 nM,100 to 1000 nM,100 to 1000 nM,100 to 1000 nM,100 to 1000 nM,100 to 1000 nM
"C=CC(=O)N1CCC2(CCCN(C(=O)N(C)[C@H](C(=O)N[C@H]3Cc4nc(cs4)-c4ccc5c(c4)c(c(-c4cccnc4[C@H](C)OC)n5CC)CC(C)(C)COC(=O)[C@@H]4CCCN(N4)C3=O)C(C)C)C2)CC1 (atropisomer, axis not shown) [Example A696]",100 to 1000 nM,100 to 1000 nM,100 to 1000 nM,100 to 1000 nM,100 to 1000 nM,100 to 1000 nM,1000 to 10000 nM,10 to 100 nM,100 to 1000 nM,100 to 1000 nM,10 to 100 nM,100 to 1000 nM
"CCn1c(-c2cccnc2[C@H](C)OC)c2c3cc(ccc31)-c1cccc(c1)C[C@H](NC(=O)[C@@H](COC1CN(C(=O)C#CC(C)(C)O)C1)C(C)C)C(=O)N1CCC[C@H](N1)C(=O)OCC(C)(C)C2 (atropisomer, axis not shown) [Example A708]",10 to 100 nM,100 to 1000 nM,1000 to 10000 nM,> 10000 nM,> 10000 nM,1000 to 10000 nM,> 10000 nM,1000 to 10000 nM,100 to 1000 nM,> 10000 nM,> 10000 nM,1000 to 10000 nM
"CCn1c(-c2cccnc2[C@H](C)OC)c2c3cc(ccc31)-c1csc(n1)C[C@H](NC(=O)[C@H](C(C)C)N(C)C(=O)N1CCN(C(=O)/C=C/CN(C)C)C[C@@H]1C)C(=O)N1CCC[C@H](N1)C(=O)OCC(C)(C)C2 (atropisomer, axis not shown) [Example A709]",10 to 100 nM,10 to 100 nM,100 to 1000 nM,100 to 1000 nM,100 to 1000 nM,100 to 1000 nM,100 to 1000 nM,10 to 100 nM,10 to 100 nM,100 to 1000 nM,10 to 100 nM,10 to 100 nM
